Laboratory results: patent publication US7902373B2 (Pfizer Inc, priority 2006, dated 2011)

Target: human recombinant H-PGDS (Homo sapiens, UniProt O60760)
Assay: Fluorescence intensity h-PGDS TBA enzyme assay
Format: biochemical
Settings: Examples up to 622 (and 3a, 3b)

human recombinant H-PGDS, sequence (O60760 whole entry): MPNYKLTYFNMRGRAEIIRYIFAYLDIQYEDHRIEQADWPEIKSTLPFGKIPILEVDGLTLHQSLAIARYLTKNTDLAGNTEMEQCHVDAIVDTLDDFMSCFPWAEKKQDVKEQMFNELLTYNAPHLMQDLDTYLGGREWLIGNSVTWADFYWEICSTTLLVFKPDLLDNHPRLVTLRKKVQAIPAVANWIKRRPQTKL

| SMILES | IC50 [nM] |
| --- | --- |
| CCOC(=O)N1CCC(NC(=O)c2ccc(-c3cccc(F)c3)nc2)CC1 [Example 32, Ethyl 4-({[6-(3-fluorophenyl)pyridin-3-yl]carbonyl}amino)piperidine-1-carboxylate] | 0.387 |
| CCOC(=O)N1CCC(NC(=O)c2ccc(-c3cc(F)cc(F)c3)nc2)CC1 [Example 33, Ethyl 4-({[6-(3,5-difluorophenyl)pyridin-3-yl]carbonyl}amino)piperidine-1-carboxylate] | 2.41 |
| O=C(NC1CCN(CC(F)(F)F)CC1)c1ccc(-c2cc(F)cc(F)c2)nc1 [Example 34, 6-(3,5-Difluorophenyl)-N-[1-(2,2,2-trifluoroethyl)piperidin-4-yl]nicotinamide] | 1.85 |
| COc1cnc(-c2ccccn2)nc1N1CCC(NC(=O)c2ccc(-c3cccc(F)c3)nc2)CC1 [Example 35, 6-(3-Fluorophenyl)-N-(1-(5-methoxy-2-(pyridin-2-yl)pyrimidin-4-yl)piperidin-4-yl)nicotinamide] | 2.95 |
| O=C(NC1CCNCC1)c1ccc(-c2cccc(F)c2)nc1 [Example 36, 6-(3-Fluorophenyl)-N-(piperidin-4-yl)nicotinamide] | 7.11 |
| O=C(NC1CCN(c2cc(Nc3cc[nH]n3)ncn2)CC1)c1ccc(-c2cccc(F)c2)nc1 [Example 37, N-(1-(6-(1H-Pyrazol-3-ylamino)pyrimidin-4-yl)piperidin-4-yl)-6-(3-fluorophenyl)nicotinamide] | 0.478 |
| O=C(NC1CCN(c2ncnc3ccc(Cl)cc23)CC1)c1ccc(-c2cccc(F)c2)nc1 [Example 38, N-(1-(6-Chloroquinazolin-4-yl)piperidin-4-yl)-6-(3-fluorophenyl)nicotinamide] | 1.04 |
| O=C(NC1CCN(c2nnnn2-c2ccccc2)CC1)c1ccc(-c2cccc(F)c2)nc1 [Example 39, 6-(3-Fluorophenyl)-N-(1-(1-phenyl-1H-tetrazol-5-yl)piperidin-4-yl)nicotinamide] | 0.924 |
| Cc1ccc(C#N)c(N2CCC(NC(=O)c3ccc(-c4cccc(F)c4)nc3)CC2)n1 [Example 41, N-[1-(3-Cyano-6-methylpyridin-2-yl)piperidin-4-yl]-6-(3-fluorophenyl)nicotinamide] | 0.893 |
| O=C(NC1CCN(c2nccnc2-c2ccccc2)CC1)c1ccc(-c2cccc(F)c2)nc1 [Example 42, 6-(3-Fluorophenyl)-N-[1-(3-phenylpyrazin-2-yl)piperidin-4-yl]nicotinamide] | 8.58 |
| O=C(NC1CCN(c2nc3ccccc3nc2NCCO)CC1)c1ccc(-c2cccc(F)c2)nc1 [Example 43, 6-(3-Fluorophenyl)-N-(1-{3-[(2-hydroxyethyl)amino]quinoxalin-2-yl}piperidin-4-yl)nicotinamide] | 2.18 |
| COc1ccc(-c2cnc(C)nc2N2CCC(NC(=O)c3ccc(-c4cccc(F)c4)nc3)CC2)cc1OC [Example 44, N-{1-[5-(3,4-Dimethoxyphenyl)-2-methylpyrimidin-4-yl]piperidin-4-yl}-6-(3-fluorophenyl)nicotinamide] | 1.36 |
| Cc1cc(N2CCC(NC(=O)c3ccc(-c4cccc(F)c4)nc3)CC2)nc(N)n1 [Example 45, N-[1-(2-Amino-6-methylpyrimidin-4-yl)piperidin-4-yl]-6-(3-fluorophenyl)nicotinamide] | 0.773 |
| Cc1nc(C(F)(F)F)nc(N2CCC(NC(=O)c3ccc(-c4cccc(F)c4)nc3)CC2)c1C [Example 46, N-{1-[5,6-Dimethyl-2-(trifluoromethyl)pyrimidin-4-yl]piperidin-4-yl}-6-(3-fluorophenyl)nicotinamide] | 1.73 |
| Cc1cc(C2CCCN2c2ccnc(N3CCC(NC(=O)c4ccc(-c5cccc(F)c5)nc4)CC3)n2)no1 (stereo not drawn) [Example 47, 6-(3-Fluorophenyl)-N-(1-{4-[2-(5-methylisoxazol-3-yl)pyrrolidin-1-yl]pyrimidin-2-yl}piperidin-4-yl)nicotinamide] | 2.92 |
| Cc1nc(-c2ccccn2)nc(N2CCC(NC(=O)c3ccc(-c4cccc(F)c4)nc3)CC2)c1Cl [Example 48, N-[1-(5-Chloro-6-methyl-2-pyridin-2-ylpyrimidin-4-yl)piperidin-4-yl]-6-(3-fluorophenyl)nicotinamide] | 2.9 |
| COc1cc(N2CCC(NC(=O)c3ccc(-c4cccc(F)c4)nc3)CC2)ncn1 [Example 49, 6-(3-Fluorophenyl)-N-[1-(6-methoxypyrimidin-4-yl)piperidin-4-yl]nicotinamide] | 0.619 |
| O=C(NC1CCN(c2ccc(C(=O)N3CCOCC3)cn2)CC1)c1ccc(-c2cccc(F)c2)nc1 [Example 50, 6-(3-Fluorophenyl)-N-{1-[5-(morpholin-4-ylcarbonyl)pyridin-2-yl]piperidin-4-yl}nicotinamide] | 0.681 |
| Cn1nnnc1N1CCC(NC(=O)c2ccc(-c3cccc(F)c3)nc2)CC1 [Example 51, 6-(3-Fluoro-phenyl)-N-[1-(1-methyl-1H-tetrazol-5-yl)-piperidin-4-yl]-nicotinamide] | 0.266 |
| COc1ccc2c(N3CCC(NC(=O)c4ccc(-c5cccc(F)c5)nc4)CC3)ncnc2c1 [Example 52, 6-(3-Fluorophenyl)-N-[1-(7-methoxyquinazolin-4-yl)piperidin-4-yl]nicotinamide] | 0.332 |

| SMILES | IC50 [nM] |
| --- | --- |
| O=C(NC1CCN(c2cc(OCc3ccccn3)ncn2)CC1)c1ccc(-c2cccc(F)c2)nc1 [Example 53, 6-(3-Fluorophenyl)-N-{1-[6-(pyridin-2-ylmethoxy)pyrimidin-4-yl]piperidin-4-yl}nicotinamide] | 1.03 |
| Cn1ccnc1COc1cc(N2CCC(NC(=O)c3ccc(-c4cccc(F)c4)nc3)CC2)ncn1 [Example 54, 6-(3-Fluorophenyl)-N-(1-{6-[(1-methyl-1H-imidazol-2-yl)methoxy]pyrimidin-4-yl}piperidin-4-yl)nicotinamide] | 1.31 |
| COc1ccc(-c2cc(N3CCC(NC(=O)c4ccc(-c5cccc(F)c5)nc4)CC3)ncn2)cc1OC [Example 55, N-{1-[6-(3,4-Dimethoxyphenyl)pyrimidin-4-yl]piperidin-4-yl}-6-(3-fluorophenyl)nicotinamide] | 1.67 |
| Cn1nccc1-c1nc(N2CCC(NC(=O)c3ccc(-c4cccc(F)c4)nc3)CC2)nc2ccccc12 [Example 56, 6-(3-Fluorophenyl)-N-{1-[4-(1-methyl-1H-pyrazol-5-yl)quinazolin-2-yl]piperidin-4-yl}nicotinamide] | 12.8 |
| CCn1cnc2c(N3CCC(NC(=O)c4ccc(-c5cccc(F)c5)nc4)CC3)ncnc21 [Example 57, N-[1-(9-Ethyl-9H-purin-6-yl)piperidin-4-yl]-6-(3-fluorophenyl)nicotinamide] | 0.285 |
| O=C(NC1CCN(c2ccnc(N3CCc4ccccc4C3)n2)CC1)c1ccc(-c2cccc(F)c2)nc1 [Example 58, N-{1-[2-(3,4-Dihydroisoquinolin-2(1H)-yl)pyrimidin-4-yl]piperidin-4-yl}-6-(3-fluorophenyl)nicotinamide] | 8.25 |
| O=C(NC1CCN(c2nccc(NCc3ccccn3)n2)CC1)c1ccc(-c2cccc(F)c2)nc1 [Example 59, 6-(3-Fluorophenyl)-N-(1-{4-[(pyridin-2-ylmethyl)amino]pyrimidin-2-yl}piperidin-4-yl)nicotinamide] | 0.822 |
| O=C(NC1CCN(c2cnccn2)CC1)c1ccc(-c2cccc(F)c2)nc1 [Example 60, 6-(3-Fluorophenyl)-N-(1-pyrazin-2-ylpiperidin-4-yl)nicotinamide] | 0.593 |
| O=C(NC1CCN(c2nncc3ccccc23)CC1)c1ccc(-c2cccc(F)c2)nc1 [Example 61, 6-(3-Fluorophenyl)-N-(1-phthalazin-1-ylpiperidin-4-yl)nicotinamide] | 0.365 |
| Cn1ccnc1-c1nc(N2CCC(NC(=O)c3ccc(-c4cccc(F)c4)nc3)CC2)nc2ccccc12 [Example 62, 6-(3-Fluorophenyl)-N-{1-[4-(1-methyl-1H-imidazol-2-yl)quinazolin-2-yl]piperidin-4-yl}nicotinamide] | 3.33 |
| O=C(NC1CCN(c2ncnc3ncccc23)CC1)c1ccc(-c2cccc(F)c2)nc1 [Example 63, 6-(3-Fluorophenyl)-N-(1-pyrido[2,3-d]pyrimidin-4-ylpiperidin-4-yl)nicotinamide] | 0.183 |
| NC(=O)c1cccnc1N1CCC(NC(=O)c2ccc(-c3cccc(F)c3)nc2)CC1 [Example 64, N-{1-[3-(Aminocarbonyl)pyridin-2-yl]piperidin-4-yl}-6-(3-fluorophenyl)nicotinamide] | 0.246 |
| O=C(NC1CCN(c2ncccc2Cl)CC1)c1ccc(-c2cccc(F)c2)nc1 [Example 65, N-[1-(3-Ahloropyridin-2-yl)piperidin-4-yl]-6-(3-fluorophenyl)nicotinamide] | 0.354 |
| CCOC(=O)c1cccnc1N1CCC(NC(=O)c2ccc(-c3cccc(F)c3)nc2)CC1 [Example 66, Ethyl 2-[4-({[6-(3-fluorophenyl)pyridin-3-yl]carbonyl}amino)piperidin-1-yl]nicotinate] | 0.627 |
| COc1ccnc(N2CCC(NC(=O)c3ccc(-c4cccc(F)c4)nc3)CC2)c1C#N [Example 67, N-[1-(3-Cyano-4-methoxypyridin-2-yl)piperidin-4-yl]-6-(3-fluorophenyl)nicotinamide] | 0.955 |
| NC(=O)c1ccc(N2CCC(NC(=O)c3ccc(-c4cccc(F)c4)nc3)CC2)nc1 [Example 68, N-{1-[5-(Aminocarbonyl)pyridin-2-yl]piperidin-4-yl}-6-(3-fluorophenyl)nicotinamide] | 0.361 |
| Cc1cc(C)c(C#N)c(N2CCC(NC(=O)c3ccc(-c4cccc(F)c4)nc3)CC2)n1 [Example 69, N-[1-(3-Cyano-46-dimethylpyridin-2-yl)piperidin-4-yl]-6-(3-fluorophenyl)nicotinamide] | 1.21 |
| N#Cc1ccc(C(F)(F)F)nc1N1CCC(NC(=O)c2ccc(-c3cccc(F)c3)nc2)CC1 [Example 70, N-{1-[3-Cyano-6-(trifluoromethyl)pyridin-2-yl]piperidin-4-yl}-6-(3-fluorophenyl)nicotinamide] | 3.26 |
| Cc1csc2c(N3CCC(NC(=O)c4ccc(-c5cccc(F)c5)nc4)CC3)ncnc12 [Example 71, 6-(3-Fluorophenyl)-N-[1-(7-methylthieno[3,2-d]pyrimidin-4-yl)piperidin-4-yl]nicotinamide] | 2.18 |
